This note sets out measurements from ChEMBL document CHEMBL3124868, “Design, synthesis, pharmacological evaluation, QSAR analysis, molecular modeling and ADMET of novel donepezil-indolyl hybrids as multipotent cholinesterase/monoamine oxidase inhibitors for the potential treatment of Alzheimer's disease” (Eur J Med Chem, 2014).

SMILES strings stand for the structures. pIC50: −log10 of the molar value. A value given as a limit tells only on which side of the number the result lay.

One assay addresses Acetylcholinesterase (Electrophorus electricus, UniProt O42275). As to the kind of experiment: Inhibition of electric eel AChE using acetylthiocholine iodide as substrate preincubated for 20 mins followed by substrate addition measured after 5 mins by Ellman's method. Background: In Ellman's method for cholinesterases, released thiocholine reacts with DTNB.
The species entered for the next assay is Homo sapiens. As to the kind of experiment: Selectivity ratio of IC50 for human recombinant MAO-B to IC50 for human recombinant MAO-A.
Assay [1] deals with T1, Amine oxidase [flavin-containing] A (Homo sapiens, UniProt P21397).
T1 sequence (P21397 whole entry): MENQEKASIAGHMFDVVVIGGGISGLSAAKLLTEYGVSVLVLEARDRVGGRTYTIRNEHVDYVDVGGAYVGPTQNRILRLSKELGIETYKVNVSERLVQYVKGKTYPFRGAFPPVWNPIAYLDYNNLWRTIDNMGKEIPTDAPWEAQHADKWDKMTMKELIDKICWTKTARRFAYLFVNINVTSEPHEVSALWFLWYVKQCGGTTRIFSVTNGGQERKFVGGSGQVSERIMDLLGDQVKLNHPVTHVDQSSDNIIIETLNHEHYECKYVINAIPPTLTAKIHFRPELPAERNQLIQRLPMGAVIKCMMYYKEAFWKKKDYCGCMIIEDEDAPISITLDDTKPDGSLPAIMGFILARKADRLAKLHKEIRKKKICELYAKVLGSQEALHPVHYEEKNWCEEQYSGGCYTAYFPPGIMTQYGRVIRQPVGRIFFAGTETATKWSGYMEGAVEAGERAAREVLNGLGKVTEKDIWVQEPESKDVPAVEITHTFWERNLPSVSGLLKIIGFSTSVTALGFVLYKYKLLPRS
The assay is described as follows: Inhibition of human recombinant MAO-A using tyramine as substrate preincubated for 30 mins followed by substrate addition measured for 1 hr by fluorometric assay. The note with it: for pIC50: read-out: IC50; for IC50: read-out: pIC50 (converted).

The target of assay [2] is T2, Amine oxidase [flavin-containing] B (Homo sapiens, UniProt P27338).
T2 sequence (P27338 whole entry): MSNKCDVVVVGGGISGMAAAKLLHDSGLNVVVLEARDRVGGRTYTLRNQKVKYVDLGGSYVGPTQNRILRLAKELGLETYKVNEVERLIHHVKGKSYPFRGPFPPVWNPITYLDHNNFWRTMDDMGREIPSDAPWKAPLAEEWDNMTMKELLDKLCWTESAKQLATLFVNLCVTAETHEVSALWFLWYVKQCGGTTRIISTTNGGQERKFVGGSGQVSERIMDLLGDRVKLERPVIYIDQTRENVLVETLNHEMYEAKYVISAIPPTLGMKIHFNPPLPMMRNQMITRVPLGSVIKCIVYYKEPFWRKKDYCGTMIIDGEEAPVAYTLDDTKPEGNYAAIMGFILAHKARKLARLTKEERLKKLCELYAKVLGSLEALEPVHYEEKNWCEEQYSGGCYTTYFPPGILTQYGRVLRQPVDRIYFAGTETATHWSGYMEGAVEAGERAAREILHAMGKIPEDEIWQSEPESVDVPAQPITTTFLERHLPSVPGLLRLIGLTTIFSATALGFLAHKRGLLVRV
The assay is described as follows: Inhibition of human recombinant MAO-B using tyramine as substrate preincubated for 30 mins followed by substrate addition measured for 1 hr by fluorometric assay.

Assay [3] can be described thus: Selectivity ratio of IC50 for equine serum BuChE to IC50 for electric eel AChE.
The target of the next assay is Cholinesterase (Equus caballus, UniProt P81908). As to the kind of experiment: Inhibition of equine serum BuChE using butyrylthiocholine iodide as substrate preincubated for 20 mins followed by substrate addition measured after 25 mins by Ellman's method.
Chain of Cholinesterase (P81908 whole entry): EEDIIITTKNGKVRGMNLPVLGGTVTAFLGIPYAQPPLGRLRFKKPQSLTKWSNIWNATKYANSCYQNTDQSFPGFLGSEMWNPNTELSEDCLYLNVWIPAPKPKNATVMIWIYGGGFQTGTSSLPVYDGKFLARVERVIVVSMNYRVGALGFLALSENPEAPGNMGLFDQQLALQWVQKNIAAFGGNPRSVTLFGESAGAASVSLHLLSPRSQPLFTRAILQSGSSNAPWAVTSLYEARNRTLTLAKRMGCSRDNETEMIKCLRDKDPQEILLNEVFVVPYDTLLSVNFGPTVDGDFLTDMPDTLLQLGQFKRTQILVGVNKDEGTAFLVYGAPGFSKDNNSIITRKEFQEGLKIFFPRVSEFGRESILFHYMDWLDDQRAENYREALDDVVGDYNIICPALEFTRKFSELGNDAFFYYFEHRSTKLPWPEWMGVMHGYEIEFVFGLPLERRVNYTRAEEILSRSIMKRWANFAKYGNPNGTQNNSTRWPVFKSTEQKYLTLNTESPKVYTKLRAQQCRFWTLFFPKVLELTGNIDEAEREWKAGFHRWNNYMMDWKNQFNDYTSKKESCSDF

Chain of Acetylcholinesterase (O42275 whole entry): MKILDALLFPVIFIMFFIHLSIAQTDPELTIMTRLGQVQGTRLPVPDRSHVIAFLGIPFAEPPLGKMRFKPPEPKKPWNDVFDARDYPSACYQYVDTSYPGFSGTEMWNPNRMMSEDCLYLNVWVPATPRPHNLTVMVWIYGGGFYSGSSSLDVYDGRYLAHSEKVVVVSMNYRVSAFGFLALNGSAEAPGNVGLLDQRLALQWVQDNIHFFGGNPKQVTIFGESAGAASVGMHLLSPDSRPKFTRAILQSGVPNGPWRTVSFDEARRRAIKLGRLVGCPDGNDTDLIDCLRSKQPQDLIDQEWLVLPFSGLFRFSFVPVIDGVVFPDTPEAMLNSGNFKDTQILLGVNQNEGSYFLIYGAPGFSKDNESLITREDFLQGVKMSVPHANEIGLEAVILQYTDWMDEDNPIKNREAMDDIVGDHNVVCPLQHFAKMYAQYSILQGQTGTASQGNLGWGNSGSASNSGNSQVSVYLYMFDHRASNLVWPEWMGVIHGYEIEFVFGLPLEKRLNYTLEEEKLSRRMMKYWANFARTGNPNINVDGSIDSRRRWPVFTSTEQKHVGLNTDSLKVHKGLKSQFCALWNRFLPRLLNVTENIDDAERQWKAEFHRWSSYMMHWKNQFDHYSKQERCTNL

On to `COc1ccc2c(c1)cc(C(=O)NCc1ccccc1)n2C`, for which the pIC50 (against Acetylcholinesterase; in assay [1]; in assay [2]; at Cholinesterase) was below 4.00 in each case. The Ratio IC50 (in the assay filed under Homo sapiens; in assay [3]) was above 1 throughout.

Turning to `COc1ccc2c(c1)cc(CNCc1ccccc1)n2C`, the pIC50 against Acetylcholinesterase is 4.82; in assay [1], below 4.00; in assay [2] it was below 4.00; against Cholinesterase, 4.64. Besides, the Ratio IC50 is above 1 in the assay filed under Homo sapiens and 1.5 in assay [3]. Besides, the IC50 in assay [1] was 100 µM.

As to `Cn1c(CNCc2ccccc2)cc2cc(OCCCC3CCN(Cc4ccccc4)CC3)ccc21`, the negative logarithm of the IC50 (pIC50) is 6.85 at Acetylcholinesterase, below 4.00 in assay [1], below 4.00 in assay [2] and 6.54 against Cholinesterase. Further, the Ratio IC50 was above 1 in the assay filed under Homo sapiens and 2 in assay [3]. Besides, in assay [1], the IC50 was 100 µM.

For the molecule `C#CCNCc1cc2cc(OCCCC3CCN(Cc4ccccc4)CC3)ccc2n1C`, the negative logarithm of the IC50 (pIC50) against Acetylcholinesterase is 6.72; in assay [1], 8.26; in assay [2] it was 6.82; at Cholinesterase it was 6.08. For the same molecule, the Ratio IC50 in the assay listed under Homo sapiens amounted to 27.3; in assay [3] it was 4.4.

In the case of `Cn1c(CO)cc2cc(OCCCC3CCN(Cc4ccccc4)CC3)ccc21`, the negative-log IC50 (pIC50) was 6.62 against Acetylcholinesterase, 5.37 in assay [1], below 4.00 in assay [2] and below 4.00 against Cholinesterase. Further, the Ratio IC50 was above 23 in the assay listed under Homo sapiens and above 416 in assay [3].

Take `Cn1c(CN2CCOCC2)cc2cc(OCCCC3CCN(Cc4ccccc4)CC3)ccc21`: the pIC50 at Acetylcholinesterase is 7.00; in assay [1], 5.36; in assay [2], below 4.00; at Cholinesterase, 6.10. Further, the Ratio IC50 was above 22.7 in the assay filed under Homo sapiens and 7.9 in assay [3].

Regarding `Cn1c(CNc2ccccc2)cc2cc(OCCCC3CCN(Cc4ccccc4)CC3)ccc21`, the pIC50 was 7.08 against Acetylcholinesterase, below 4.00 in assay [1], below 4.00 in assay [2] and 6.07 against Cholinesterase. Besides, the Ratio IC50 in the assay listed under Homo sapiens is above 1; in assay [3], 10. For the same molecule, the IC50 in assay [1] was 100 µM.

With `C=CCNCc1cc2cc(OCCCC3CCN(Cc4ccccc4)CC3)ccc2n1C`, the pIC50 on Acetylcholinesterase was 6.85; in assay [1] it was 6.01; in assay [2] it was 4.82; against Cholinesterase, 6.34. Further, the Ratio IC50 in the assay listed under Homo sapiens is 15.6; in assay [3], 3.3.

For the molecule `C#CCN(C)Cc1cc2cc(OCCCC3CCN(Cc4ccccc4)CC3)ccc2n1C`, the pIC50 in assay [1] was 8.38.

Turning to `Cn1c(C(=O)NCc2ccccc2)cc2cc(OCCCC3CCN(Cc4ccccc4)CC3)ccc21`, the pIC50 (against Acetylcholinesterase; in assay [1]; in assay [2]; against Cholinesterase) was below 4.00 each time. In addition, the Ratio IC50 (in the assay filed under Homo sapiens; in assay [3]) was above 1 throughout.

Take `C#CCNC(=O)c1cc2cc(OCCCC3CCN(Cc4ccccc4)CC3)ccc2n1C`: the pIC50 against Acetylcholinesterase was 6.89; in assay [1], below 4.00; in assay [2], below 4.00; at Cholinesterase, below 4.00. The Ratio IC50 in the assay filed under Homo sapiens was above 1; in assay [3], above 770.

With `Cn1c(C(=O)O)cc2cc(OCCCC3CCN(Cc4ccccc4)CC3)ccc21`, the pIC50 against Acetylcholinesterase is 6.40; in assay [1], below 4.00; in assay [2], below 4.00; at Cholinesterase, below 4.00. The Ratio IC50 in the assay listed under Homo sapiens was above 1; in assay [3], above 250.

In the case of `CCOC(=O)c1cc2cc(OCCCC3CCN(Cc4ccccc4)CC3)ccc2n1C`, the negative-log IC50 (pIC50) was 6.57 against Acetylcholinesterase, 5.82 in assay [1], below 4.00 in assay [2] and below 4.00 at Cholinesterase. Further, the Ratio IC50 in the assay listed under Homo sapiens is above 65; in assay [3], above 370.

With `Cn1c(C(=O)N2CCOCC2)cc2cc(OCCCC3CCN(Cc4ccccc4)CC3)ccc21`, the pIC50 at Acetylcholinesterase was 6.57; in assay [1], below 4.00; in assay [2] it was below 4.00; against Cholinesterase it was below 4.00. In addition, the Ratio IC50 in the assay filed under Homo sapiens was above 1; in assay [3], above 370.

For the molecule `Cn1c(C(=O)Nc2ccccc2)cc2cc(OCCCC3CCN(Cc4ccccc4)CC3)ccc21`, the negative-log IC50 (pIC50) (at Acetylcholinesterase; in assay [1]; in assay [2]; on Cholinesterase) was below 4.00 in each case. In addition, the Ratio IC50 (in the assay listed under Homo sapiens; in assay [3]) was above 1 in each case.

A word on the pIC50: it is −log10 of the IC50, conventionally taken in molar units.
